# Data published in patent US20140088063A1, “AGENTS FOR TREATING NEURODEGENERATIVE DISORDERS” (priority 2010, published 2014).
# Marks after values point to notes of the source that are not given here.
# How the values were obtained:
# male white rats [1] = experiment: Modified behavioral despair test (water wheel); type: in vivo; conditions: 3 h
# Description: Nomura et al. (1982) published a modification of the despair swim test in mice involving small water wheel set in a water tank. Mice placed on this apparatus turned the wheel vigorously but when they abandoned attempts to escape from the water, the wheel stopped turning. Antidepressant activity of compounds was assessed by counting the number of rotations of the water wheel (see Table 4).
# The male white rats (250-280 g) were treated intraperitoneally according to procedure described below. The animals were divided into five groups of ten rats and treated as follows. The rats of first group were used as controls. They were injected intraperitoneally with distilled water 24 h, 3 h, 40 minutes before the experiment. Second group was treated with Compound Ia at a dose 100 mg/kg i.p. 24 h, 3 h, 40 minutes before the experiment. Third group was treated with Amitriptyline at a dose 10 mg/kg i.p. using the same regimen as in groups above.
# The antidepressant activity was assessed by estimating immobility time as a period in which animal remains immobile during swimming (see Table 4). Statistical data processing was performed using “BioStat” tool for Windows.
# male white rats [2] = experiment: Behavioral despair test (forced swimming); type: in vivo; conditions: 3 h
# Description: This behavior reflects a state of despair which can be reduced by several agents which are therapeutically effective in human depression.
# The male white rats (250-280 g) were treated intraperitoneally according to procedure described below. The animals were divided into five groups of ten rats and treated as follows. The rats of first group were used as controls. They were injected intraperitoneally with distilled water 24 h, 3 h, 40 minutes before the experiment. Second group was treated with Compound I′ at a dose 100 mg/kg i.p. 24 h, 3 h, 40 minutes before the experiment. Third group was treated with Amitriptyline at a dose 10 mg/kg i.p. using the same regimen as in groups above.
# The antidepressant activity was assessed by estimating immobility time as a period in which animal remains immobile during swimming (see Table 2). Statistical data processing was performed using “BioStat” tool for Windows.
# C57BL/6J mice [3] = experiment: Learned helplessness test (compound of formula I′); type: in vivo
# Description: As explained above, the learned helplessness test in mice is the well-known animal model to determine antidepressant efficacy of compounds. Basically when animals learned to be helpless are given antidepressant drugs, they unlearn helplessness and start exerting control over their environment. Antidepressant activity of compounds was assessed by estimating latency time as a period in which animal is not trying to escape from stress (see Table 3). […]
# C57BL/6J mice [4] = experiment: Toxicity test, median lethal dose after intraperitoneal injection; type: in vivo
# Description: Toxicity to mammals was measured after intraperitoneal injections of compounds of formula I to C57BL/6J mice. Median lethal dose (LD50) was calculated as described previously (see table 1).
# C57BL/6J mice [5] = experiment: Learned helplessness test (compounds of formula I); type: in vivo; conditions: percent of control (non-treated animals) taken as 100%; for Latency time, % 1/3 LD50: i.p. dose 1/3 of LD50; for Latency time, % 1/13 LD50: i.p. dose 1/13 of LD50
# Description: The learned helplessness test in mice is the well-known animal model to determine antidepressant efficacy of compounds. Basically when animals learned to be helpless are given antidepressant drugs, they unlearn helplessness and start exerting control over their environment.
# The C57BL/6J mice were treated intraperitoneally with compounds of formula I intraperitoneally at dose corresponding to ⅓ or 1/13 of lethal dose, then antidepressant activity of compounds was assessed by estimating latency time as a period in which animal is not trying to escape from stress (see Table 1).
# C57BL/6J mice [6] = experiment: Black and white box test (light-dark test); type: in vivo; conditions: entries to the light zone; i.p.; percent of control (non-treated animals) taken as 100%
# Source text: The black and white test (also named light-dark test) is based on the conflict of natural tendencies of rodents to avoid lighted and open areas and to explore novel environments. Relative time spent in exploring each compartment indicates the anxiety level of the animal: Avoidance of the brightly lit area is considered reflecting “anxiety-like” behaviors. When treated with anxiolytic drugs, rodents spend more time in this area, an effect purportedly due to a decrease in anxiety.
# The C57BL/6J mice were treated intraperitoneally with compound of the invention, then anxiolytic efficacy of compounds of formula I was assessed by estimating the number of entries to the light zone (see Table 1).
# [7] = acute toxicity, known antidepressants for comparison; cited from earlier work
# [8] = 10 mg/kg i.p. 24 h, 40 minutes before the experiment (Fluoxetin as powder)
# [9] = 90 mg/kg i.p. once daily, 2 days course
# [10] = 90 mg/kg i.p. once daily, 6 days course
# [11] = 90 mg/kg i.p. once daily, 12 days course
# [12] = 100 mg/kg i.p. 24 h, 40 minutes before the experiment
# [13] = 100 mg/kg i.p. three times 24 h, 40 min before experiment
smiles,measurement,setting,value
"CN(C)CCC=C1c2ccccc2CCc2ccccc21 [Amitriptyline, reference compound]",Rotation number,male white rats [1]; [8],165.93 ± 35.41
same,Immobility time,male white rats [2]; [8],145.62 ± 45.39 s
CNCCC(Oc1ccc(C(F)(F)F)cc1)c1ccccc1 (centres unmarked) [Fluoxetin],Rotation number,male white rats [1]; [8],108.34 ± 53.96
same,Immobility time,male white rats [2]; [8],337.45 ± 36.69 s
same,Immobility time,"male white rats [2]; 20 mg/kg 24 h, 40 minutes before the experiment (Fluoxetin as tablet)",218.45 ± 38.87 s
"C1CCC2(CC1)NN2CCN1NC12CCCCC2 [Ia, meso-1S,2S,1′R,2′R-1-[2-(1,2-diazaspiro[2.5]oct-1-yl)ethyl]-1,2-diazaspiro[2.5]octane]",Latency time,C57BL/6J mice [3]; [9],13.6 ± 1.1 s
same,"Non-escaping animals, %",C57BL/6J mice [3]; [9],18** %
same,Latency time,C57BL/6J mice [3]; [10],7.5 ± 0.9 s
same,"Non-escaping animals, %",C57BL/6J mice [3]; [10],12** %
same,Latency time,C57BL/6J mice [3]; [11],6.2 ± 0.5 s
same,"Non-escaping animals, %",C57BL/6J mice [3]; [11],1.4** %
same,effect of single doses in learned helplessness test,C57BL/6J mice [3]; single dose,not effective
same,LD50,C57BL/6J mice [4],611 mg/kg
same,"Latency time, % 1/3 LD50",C57BL/6J mice [5],56** %
same,"Latency time, % 1/13 LD50",C57BL/6J mice [5],72** %
same,"Number of entries, %",C57BL/6J mice [6],56** %
"CC1(C)NN1CCCCN1NC1(C)C [Ic, meso-1S,2S,1′R,2′R-1-[4-(3,3-dimethyldiaziridin-1-yl)butyl]-3,3-dimethyldiaziridine]",LD50,C57BL/6J mice [4],1000 mg/kg
same,"Latency time, % 1/3 LD50",C57BL/6J mice [5],188** %
same,"Latency time, % 1/13 LD50",C57BL/6J mice [5],104%
same,"Number of entries, %",C57BL/6J mice [6],62** %
"CC1(C)NN1CCN1NC12CCCCC2 [Ie, meso-1S,2S,1′R,2′R-1-[2-(3,3-dimethyldiaziridin-1-yl)ethyl]-1,2-diazaspiro[2.5]octane]",LD50,C57BL/6J mice [4],1125 mg/kg
same,"Latency time, % 1/3 LD50",C57BL/6J mice [5],62** %
same,"Latency time, % 1/13 LD50",C57BL/6J mice [5],74** %
same,"Number of entries, %",C57BL/6J mice [6],75** %
"C1CCC2(C1)NN2CCN1NC12CCCC2 [If, meso-1S,2S,1′R,2′R-1-[2-(1,2-diazaspiro[2.4]hept-1-yl)ethyl]-1,2-diazaspiro[2.4]heptane]",LD50,C57BL/6J mice [4],1150 mg/kg
same,"Latency time, % 1/3 LD50",C57BL/6J mice [5],95%
same,"Latency time, % 1/13 LD50",C57BL/6J mice [5],94%
same,"Number of entries, %",C57BL/6J mice [6],60** %
"[H][N@]1[N@@](CC[N@@]2[N@]([H])C2(C)C)C1(C)C [I′, meso-1S,2S,1′R,2′R-1-[2-(3,3-dimethyldiaziridin-1-yl)ethyl]-3,3-dimethyldiaziridine]",time after which antidepressive effect was observed,"C57BL/6J mice [3]; 90 mg/kg i.p. once daily, earlier than for comparative drugs",2 days
same,Rotation number,male white rats [1]; [12],156.48 ± 26.79
same,antidepressant activity (modified behavioral despair test),male white rats [1]; [13],significant antidepressant activity
same,Immobility time,male white rats [2]; [12],291.55 ± 43.94 s
same,antidepressant activity (behavioral despair test),male white rats [2]; [13],significant antidepressant activity
O=C(CCNNC(=O)c1ccncc1)NCc1ccccc1 [Nyalamidum],LD50,[7],820 mg/kg
CN(C)CCCC1(c2ccc(F)cc2)OCc2cc(C#N)ccc21 (centres unmarked) [cypramile],LD50,[7],1.7 mg/kg
CN(C)CCCN1c2ccccc2CCc2ccccc21 [melipramine],Latency time,"C57BL/6J mice [3]; 7 mg/kg i.p., 2 days course",13.5 ± 1.8 s
same,"Non-escaping animals, %","C57BL/6J mice [3]; 7 mg/kg i.p., 2 days course",43%
same,Latency time,"C57BL/6J mice [3]; 7 mg/kg i.p., 6 days course",11.8 ± 1.5 s
same,"Non-escaping animals, %","C57BL/6J mice [3]; 7 mg/kg i.p., 6 days course",29%
same,Latency time,"C57BL/6J mice [3]; 7 mg/kg i.p., 12 days course",9.2 ± 1.1 s
same,"Non-escaping animals, %","C57BL/6J mice [3]; 7 mg/kg i.p., 12 days course",11* %
Cc1ccc2c(c1)c1c3n2CCNC3CCC1 (centres unmarked) [pirazidole],Latency time,"C57BL/6J mice [3]; 10 mg/kg i.p., 2 days course",13.6 ± 1.1 s
same,"Non-escaping animals, %","C57BL/6J mice [3]; 10 mg/kg i.p., 2 days course",39%
same,Latency time,"C57BL/6J mice [3]; 10 mg/kg i.p., 6 days course",10.0 ± 1.4 s
same,"Non-escaping animals, %","C57BL/6J mice [3]; 10 mg/kg i.p., 6 days course",18%
same,Latency time,"C57BL/6J mice [3]; 10 mg/kg i.p., 12 days course",8.3 ± 0.7 s
same,"Non-escaping animals, %","C57BL/6J mice [3]; 10 mg/kg i.p., 12 days course",14* %
